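All cell lines were grown in 96-well plates and treated with compound for 48 hours. At the GI50, growth is halved. At the TGI there is no net growth.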
Legend:
Assay in all cases: NCI tumour cell line growth inhibition, 48 h
U251 CNS = tested on: U251 CNS
SF-268 CNS = tested on: SF-268 CNS
SK-MEL-2 melanoma = tested on: SK-MEL-2 melanoma
SK-MEL-5 melanoma = tested on: SK-MEL-5 melanoma
IGROV1 ovarian = tested on: IGROV1 ovarian
NCI-H23 lung = tested on: NCI-H23 lung
MOLT-4 leukemia = tested on: MOLT-4 leukemia
SK-OV-3 ovarian = tested on: SK-OV-3 ovarian
MCF7 breast = tested on: MCF7 breast
HOP-92 NSCLC = tested on: HOP-92 NSCLC

SMILES	TGI (U251 CNS)	TGI (SF-268 CNS)	TGI (SK-MEL-2 melanoma)	TGI (SK-MEL-5 melanoma)	TGI (IGROV1 ovarian)	TGI (NCI-H23 lung)	TGI (MOLT-4 leukemia)	TGI (SK-OV-3 ovarian)	TGI (MCF7 breast)	TGI (HOP-92 NSCLC)	GI50 (MCF7 breast)	GI50 (U251 CNS)	GI50 (HOP-92 NSCLC)	GI50 (SF-268 CNS)	GI50 (SK-MEL-2 melanoma)	GI50 (SK-MEL-5 melanoma)	GI50 (IGROV1 ovarian)	GI50 (NCI-H23 lung)	GI50 (MOLT-4 leukemia)	GI50 (SK-OV-3 ovarian)
COc1ccc(C(=O)Cc2cc(OC)ccc2OC)cc1	> 100 µM	> 100 µM	> 100 µM	> 100 µM	> 100 µM	> 100 µM	> 100 µM	> 100 µM	–	–	–	–	–	–	–	–	–	–	–	–
CC(C)=CCN(N=O)c1ncnc2nc[nH]c12	–	> 100 µM	–	> 100 µM	> 100 µM	> 100 µM	> 100 µM	> 100 µM	> 100 µM	> 100 µM	–	–	–	–	–	–	–	–	–	–
COc1ccccc1C1C(C#N)=C(N)OC2=C1C(=O)CCC2 (stereo not given)	> 100 µM	> 100 µM	> 100 µM	> 100 µM	> 100 µM	> 100 µM	> 100 µM	> 100 µM	> 100 µM	> 100 µM	> 100 µM	> 100 µM	15.8 µM	> 100 µM	> 100 µM	> 100 µM	> 100 µM	> 100 µM	> 100 µM	> 100 µM
CCCCc1ccc2[n+](c1)C(C(=O)OCC)=PC2 (stereo not given)	> 100 µM	> 100 µM	–	> 100 µM	> 100 µM	> 100 µM	> 100 µM	> 100 µM	> 100 µM	> 100 µM	–	–	–	–	–	–	–	–	–	–
O=C1c2ccccc2-c2ccc(NC(=O)C3CCCCC3C(=O)O)cc21 (stereo not given)	> 100 µM	> 100 µM	> 100 µM	> 100 µM	> 100 µM	> 100 µM	> 100 µM	> 100 µM	> 100 µM	> 100 µM	–	–	–	–	–	–	–	–	–	–
O=CNc1cccc2c3c([nH]c12)CCCCCC3	> 100 µM	> 100 µM	> 100 µM	> 100 µM	> 100 µM	> 100 µM	> 100 µM	> 100 µM	> 100 µM	> 100 µM	–	–	–	–	–	–	–	–	–	–
C=C1C(=O)O[C@H]2C1[C@H](OC(=O)/C(C)=C\COC(C)=O)C[C@]1(CO1)[C@@H]1[C@H](O)[C@H]3O[C@@]3(C)[C@@H]12 (stereo not given in full)	44.7 µM	49.7 µM	48.8 µM	37.8 µM	59.8 µM	29.7 µM	> 73.3 µM	> 100 µM	27.8 µM	30.8 µM	–	–	–	–	–	–	–	–	–	–
COC(=O)C(C)N1C(=O)c2ccccc2I1OC(C)=O (stereo not given)	> 100 µM	> 100 µM	> 100 µM	> 100 µM	> 100 µM	> 100 µM	45.7 µM	> 100 µM	> 100 µM	> 100 µM	30.7 µM	34.8 µM	> 100 µM	69 µM	> 100 µM	> 100 µM	37.2 µM	40.3 µM	22 µM	> 100 µM
CCOC(=O)C1C(c2cc(OC)c(O)c(OC)c2)c2cc3c(cc2OC1(C)O)OCO3 (stereo not given)	> 100 µM	–	> 100 µM	> 100 µM	> 100 µM	> 100 µM	> 100 µM	> 100 µM	–	57 µM	–	–	–	–	–	–	–	–	–	–
COc1cc(N=Nc2cccc(S(=O)(=O)O)c2)c(C)cc1N=Nc1ccc(/C=C/c2ccc(N=[N+]([O-])c3ccc(/C=C/c4ccc(N=Nc5cc(C)c(N=Nc6cccc(S(=O)(=O)O)c6)cc5OC)cc4)c(S(=O)(=O)O)c3)cc2S(=O)(=O)O)cc1	> 100 µM	> 100 µM	> 100 µM	> 100 µM	> 100 µM	> 100 µM	> 100 µM	> 100 µM	> 100 µM	> 100 µM	–	–	–	–	–	–	–	–	–	–
Cc1cc(NS(=O)(=O)c2ccc(Nc3c4ccccc4nc4c(C(=O)NCCN(C)C)ccc(Cl)c34)cc2)no1	13.6 µM	15.3 µM	19.7 µM	10.1 µM	20.7 µM	16.1 µM	1.74 µM	–	–	–	–	–	–	–	–	–	–	–	–	–

— PubChem BioAssay (NCI)
